From article PMC5986738, “Thiazole Amides, A Novel Class of Algaecides against Freshwater Harmful Algae” (Scientific Reports, 2018)
In brackets after ≈: the same amount, converted by molar mass.

How the values were obtained:
S. obliqnus = experiment: Algicidal activity (growth inhibition, microplate, absorbance 650 nm) against S. obliqnus; assay type: cell-based; settings: for IC50 value S. obliqnus: 96-hour IC50, mean ± SD
Method: (§1) According to the method established by Schrader et al.[42], algicidal activity of alkaloid (1) and its amide analogues (7–32), as well as their hydrochloric salts (7S–27S), was evaluated against three typical […] algae, S. obliqnus, M. aeruginosa, and C. Pyrenoidosa at different concentrations. After three algae species were inoculated, the variation of algae density over 7 days were recorded continuously. […] The wavelength at 650 nm was determined as ideal incident wavelength for the measurement of algae density. Three […] algae S. obliqnus, M. aeruginosa, and C. pyrenoidosa were offered by Freshwater algae culture collection of the institute of Hydrobiology (FACHB-collection). Each culture for three species was maintained separately in continuous, steady-state growth microplates, which were placed in a growth chamber held at 28 ± 1 °C and illuminated continuously under fluorescent lights at a photon flux density of […]. Absorbance values of each wells were measured by a Packard model Spectra Count microplate photometer.
(§2) Alkaloid (1) and its analogues (7–32), as well as their hydrochloric salts (7S–27S), were dissolved separately in DMSO to provide stock solution concentrations. Initially, each stock solution was aseptically pipetted into the bottom of separate wells (20 μL per well) in a 96-well microplate and the final test concentrations for each sample were 0, 0.78, 1.56, 3.12, 6.25, 12.5, and 25 μg/mL. Wells of control samples contained only unialgal culture. The solution of CuSO4 and Diuron at the same concentration were chose as the reference sample. Each experiment was performed at least three times. Through measuring the area values under the individual growth curves, the inhibitory rate (%) for the individual tested concentration was calculated according to the following equation (1):1 Ii=(Ac−Ai)/[…]×100% • Ii: inhibitory rate of biomass growth by toxicant concentration i (%) • Ac: average area under the growth curve by control sample • Ai: average area under the growth curve by test concentration i
(§3) Mean values of 96-hour IC50 were determined for each group of plates, and standard deviation were calculated and reported as the mean ± SD.
(§4) The IC50 values of all compounds against three freshwater algae species were calculated using SPSS v19.0, and the algicidal activities of alkaloid (1) and its amide analogues (7–32), as well as the corresponding hydrochloric salts (7S–27S) are listed in Table 1 and 2, respectively.

M. aeruginosa = experiment: Algicidal activity (growth inhibition, microplate, absorbance 650 nm) against M. aeruginosa; assay type: cell-based; settings: for IC50 value M. aeruginosa: 96-hour IC50, mean ± SD; for growth inhibitory ratio: 3.13 μg/mL
Method: as §1, §2, §3, §4
Currently, M. aeruginosa appears to be the most harmful algae existing in the freshwater bodies in the developing countries. To investigate growth inhibitory potential of this class of thiazole amides on M. aeruginosa, thiazole amide (10) and its hydrochloric acid salt (10S) were subject to further survey for the optimal inhibition time and concentration (Figs 3 and 4). […] The variation of growth inhibitory ratios of compounds (10) and (10S) against M. aeruginosa at the lowest complete inhibition concentration is illustrated in Fig. 4. As observed, for administration of thiazole amide (10), the growth inhibitory ratios after 96 and 120 hours increase gradually to 79% and 92%, respectively. Under the same experimental conditions, growth inhibitory ratios for the salt (10S) are 82% and 88%, respectively.

C. pyrenoidosa = experiment: Algicidal activity (growth inhibition, microplate, absorbance 650 nm) against C. pyrenoidosa; assay type: cell-based, Chlorella pyrenoidosa; settings: for IC50 value C. pyrenoidosa: 96-hour IC50, mean ± SD
Method: as §1, §2, §3, §4

| SMILES | IC50 value S. obliqnus (S. obliqnus) [µg/mL] | IC50 value M. aeruginosa (M. aeruginosa) [µg/mL] | IC50 value C. pyrenoidosa (C. pyrenoidosa) [µg/mL] | growth inhibitory ratio (M. aeruginosa; after 96 hours) [%] | growth inhibitory ratio (M. aeruginosa; after 120 hours) [%] | IC50 (S. obliqnus; 96 h, read-out: IC50 value S. obliqnus) [µg/mL] | IC50 (M. aeruginosa; Microcystis aeruginosa, 96 h, read-out: IC50 value M. aeruginosa) [µg/mL] | IC50 (C. pyrenoidosa; Auxenochlorella pyrenoidosa, 96 h, read-out: IC50 value C. pyrenoidosa) [µg/mL] |
| --- | --- | --- | --- | --- | --- | --- | --- | --- |
| C[C@H](N)c1nc(C(=O)Nc2ccccc2)cs1.Cl [7S] | 0.14 ± 0.06 | 1.33 ± 0.16 | 2.54 ± 0.28 |  |  |  |  |  |
| C[C@H](N)c1nc(C(=O)Nc2ccc(F)cc2)cs1.Cl [8S] | 1.14 ± 0.09 | 3.00 ± 0.12 | 2.69 ± 0.23 |  |  |  |  |  |
| C[C@H](N)c1nc(C(=O)Nc2ccc(Cl)cc2)cs1.Cl [9S] | 4.00 ± 0.34 | 1.18 ± 0.21 | 0.40 ± 0.10 |  |  |  |  |  |
| C[C@H](N)c1nc(C(=O)Nc2ccc(Br)cc2)cs1.Cl [10S] |  |  |  | 82 | 88 |  |  |  |
| Cc1ccc(NC(=O)c2csc([C@H](C)N)n2)cc1.Cl [11S] | 6.83 ± 0.45 | 4.34 ± 0.36 | 3.37 ± 0.28 |  |  |  |  |  |
| COc1ccc(NC(=O)c2csc([C@H](C)N)n2)cc1.Cl [12S] | 3.16 ± 0.29 | 1.40 ± 0.18 | 2.88 ± 0.39 |  |  |  |  |  |
| C[C@H](N)c1nc(C(=O)Nc2cccc(Cl)c2)cs1.Cl [14S] | 2.01 ± 0.19 | 0.79 ± 0.08 | 0.66 ± 0.06 |  |  |  |  |  |
| C[C@H](N)c1nc(C(=O)Nc2cccc(Br)c2)cs1.Cl [15S] | 1.59 ± 0.16 | 2.96 ± 0.26 | 2.75 ± 0.30 |  |  |  |  |  |
| Cc1cccc(NC(=O)c2csc([C@H](C)N)n2)c1.Cl [16S] | 4.07 ± 0.39 | 1.95 ± 028 | 1.82 ± 0.14 |  |  |  |  |  |
| C[C@H](N)c1nc(C(=O)Nc2cccc(C(F)(F)F)c2)cs1.Cl [17S] | 1.59 ± 0.23 | 3.09 ± 0.42 | 2.39 ± 0.24 |  |  |  |  |  |
| C[C@H](N)c1nc(C(=O)Nc2ccccc2F)cs1.Cl [18S] | 1.12 ± 0.09 | 0.26 ± 0.01 | 0.27 ± 0.09 |  |  |  |  |  |
| C[C@H](N)c1nc(C(=O)Nc2ccccc2Cl)cs1.Cl [19S] | 0.14 ± 0.02 | 3.07 ± 0.34 | 2.50 ± 0.16 |  |  |  |  |  |
| C[C@H](N)c1nc(C(=O)Nc2ccccc2Br)cs1.Cl [20S] | 0.68 ± 0.06 | 1.23 ± 0.12 | 0.41 ± 0.04 |  |  |  |  |  |
| Cc1ccccc1NC(=O)c1csc([C@H](C)N)n1.Cl [21S] | 13.63 ± 1.20 | 4.93 ± 045 | 5.15 ± 0.56 |  |  |  |  |  |
| COc1ccccc1NC(=O)c1csc([C@H](C)N)n1.Cl [22S] | 1.74 ± 0.24 | 1.12 ± 0.16 | 0.35 ± 0.02 |  |  |  |  |  |
| C[C@H](N)c1nc(C(=O)Nc2ccc(OC(F)(F)F)cc2)cs1.Cl [23S] | 4.68 ± 0.38 | 4.45 ± 0.58 | 0.66 ± 0.03 |  |  |  |  |  |
| C[C@H](N)c1nc(C(=O)Nc2ccc(Cl)c(Cl)c2)cs1.Cl [24S] | 5.59 ± 0.78 | 5.18 ± 0.66 | 3.42 ± 0.32 |  |  |  |  |  |
| Cc1cc(NC(=O)c2csc([C@H](C)N)n2)ccc1F.Cl [25S] | 16.62 ± 1.48 | 1.79 ± 0.22 | 1.59 ± 0.19 |  |  |  |  |  |
| CCOC(=O)c1ccc(NC(=O)c2csc([C@H](C)N)n2)cc1.Cl [26S] | 10.60 ± 1.18 | 2.46 ± 0.23 | 2.38 ± 0.32 |  |  |  |  |  |
| O=S(=O)([O-])[O-].[Cu+2] [CuSO4, reference compound] | 0.99 ± 0.06 | 1.29 ± 0.02 | 1.56 ± 0.09 |  |  |  |  |  |
| CN(C)C(=O)Nc1ccc(Cl)c(Cl)c1 [Diuron, reference compound] |  |  |  |  |  | 0.79 ± 0.08 (≈ 3.39 µM) | 1.35 ± 0.15 (≈ 5.79 µM) | 1.42 ± 0.27 (≈ 6.09 µM) |
